Results from US7635701B2 (Glaxo Group Limited, priority 2002, dated 2009).

Tests used:
[1] = Particle size analysis on Lecotrac laser particle size analyser, pre and post nanomilling; assay type: physicochemical; conditions: for Post-nanomilling 50% percentile particle size / Post-nanomilling 95% percentile particle size: after wet milling in aqueous 1.5% HPMC with YTZ beads; for Pre-nanomilling 50% percentile particle size / Pre-nanomilling 95% percentile particle size: starting material before nanomilling
Method: The particle size of the solid particles of compound (1) may be determined by laser diffraction. A suitable machine for determining particle size by laser diffraction is a Lecotrac laser particle size analyser, using an HELOS optical bench fitted with a QUIXEL dispersion unit.
2.5 g of compound of example 176 was weighed into a […] centrifuge tube. 25 ml of 0.3 mm yttrium zirconium (YTZ) ceramic milling beads (Manufacturer: Tosoh, Japan; Supplier: Glen Creston Ltd., batch no. 5280130030)”) was weighed into a 50 ml milling pot. 22.5 ml of aqueous 1.5% HPMC was measured with a measuring cylinder into a 100 ml beaker. This solution was homogenised for 3 seconds with an Ultra Turrax T25 homogeniser. Approximately 200 mg of the 2.5 g of the compound was added to the HPMC solution and homogenised at the lowest speed setting until the powder was wetted. This was repeated until all the compound had been added. The speed of the homogeniser was then increased to maximum and the suspension was homogenised for a further 3 minutes. This suspension was allowed to stand for 30 minutes in order to allow some of the foam to disperse. The suspension was then poured into the 50 ml pot containing the YTZ milling beads, stirring to release any trapped air. The lid to the pot was then fitted and the pot sealed with some Nesco film. This procedure was repeated for a second 50 ml nanomilling pot and both pots were placed on a Retsch mill and milled for a total of 8 hours.
The milling pots were removed from the Retsch mill and left to cool and for the foam to disperse overnight. In the morning the suspension and bead mixture was passed through a 200μ, 40 mm diameter screen. The contents from each 50 ml pot was washed with aqueous 1.5% HPMC: 10% of the original suspension volume (i.e. 2.5 ml). The suspension from the 2 pots was combined to make 1 batch. The suspension obtained from the method above was named the concentrate.
A particle size analysis was carried out on the Lecotrac laser particle size analyser. The results are shown in Table B along with the results from the starting material for comparison:
Compounds of Examples 19, 34, 194, 217, 228, 247 were nanomilled on a 1 g scale using the process described above and the particle size analysed pre and post nanomilling.

[2] = biological target: human cannabinoid CB2 receptor (Homo sapiens, UniProt P34972); assay: Cannabinoid CB2 receptor agonist activity in yeast cells (FDGlu fluorescence)
Chain of human cannabinoid CB2 receptor (P34972 whole entry): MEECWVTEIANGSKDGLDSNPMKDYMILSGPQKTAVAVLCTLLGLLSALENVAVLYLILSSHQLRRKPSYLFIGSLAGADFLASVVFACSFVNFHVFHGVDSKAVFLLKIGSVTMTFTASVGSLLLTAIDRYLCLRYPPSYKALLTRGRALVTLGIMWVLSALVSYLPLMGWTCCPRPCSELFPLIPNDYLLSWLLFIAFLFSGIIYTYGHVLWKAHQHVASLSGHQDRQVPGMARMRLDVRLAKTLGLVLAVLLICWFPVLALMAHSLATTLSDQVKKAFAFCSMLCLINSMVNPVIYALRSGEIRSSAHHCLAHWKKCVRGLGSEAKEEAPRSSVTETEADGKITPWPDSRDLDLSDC

Compound	Post-nanomilling 50% percentile particle size [1] [μ]	Post-nanomilling 95% percentile particle size [1] [μ]	Pre-nanomilling 50% percentile particle size [1] [μ]	Pre-nanomilling 95% percentile particle size [1] [μ]	EC50 [2] [nM]
O=C(NCC1CCCC1)c1cnc(Nc2ccc(F)c(Cl)c2)nc1C(F)(F)F [Ex 247, 2-(3-Chloro-4-fluoro-phenylamino)-4-trifluoromethyl-pyrimidine-5-carboxylic acid cyclopentylmethyl-amide]	0.64	2.53	13.2	68.7	–
O=C(NCC1CCCO1)c1cnc(Nc2cccc(F)c2)nc1C(F)(F)F (stereo in doubt) [Example 73, 2-(3-Fluoro-phenylamino)-4-trifluoromethyl-pyrimidine-5-carboxylic acid [(R)-1-(tetrahydro-furan-2-yl)methyl]-amide]	–	–	–	–	300 to 1000
CC(C)CNC(=O)c1cnc(Nc2cccc(Cl)c2)nc1C(F)(F)F [Example 210]	–	–	–	–	20 to 300
O=C(NC1CCSCC1)c1cnc(Nc2cccc(Cl)c2Cl)nc1C(F)(F)F [Example 81, 2-(2,3-Diclorophenylamino)-4-trifluoromethyl-pyrimidine-5-carboxylic acid (tetrahydro-thiopyran-4-yl)-amide]	–	–	–	–	300 to 1000
N#Cc1ccc(Nc2ncc(C(=O)NCC3CCOCC3)c(C(F)(F)F)n2)cc1Cl [Ex 217, 2-(4-Cyano-3-chloro-phenylamino)-4-trifluoromethyl-pyrimidine-5-carboxylic acid (tetrahydro-pyran-4-ylmethyl)-amide]	0.34	1.30	5.70	34.9	–
O=C(NCC1(O)CCCCC1)c1cnc(Nc2cccc(F)c2)nc1C(F)(F)F [Example 86, 2-(3-Fluoropheny1-amino)4-trifluoro-methyl-pyrimidine-5-carboxylic acid(1-hydroxy-cyclohexyl-methyl)amide]	–	–	–	–	300 to 1000
O=C(NCC1CCCCC1)c1cnc(Nc2ccccc2)nc1C(F)(F)F [Example 5]	–	–	–	–	20 to 300
O=C(NCC1CCCCC1)c1cnc(Nc2cccc(F)c2)nc1C(F)(F)F [Example 19, 2-(3-Fluorophenylamino)-4-trifluoromethylpyrimidine-5-arboxylic acid cyclohexylmethyl-amide]	0.40	1.40	5.22	25.5	–
O=C(c1cnc(Nc2cccc(Br)c2)nc1C(F)(F)F)N1CCCCC1 [Example 12]	–	–	–	–	20 to 300
N#Cc1ccc(Nc2ncc(C(=O)NCC3CCC3)c(C(F)(F)F)n2)cc1Cl [Example 197]	–	–	–	–	20 to 300
N#Cc1ccc(Nc2ncc(C(=O)NCC3CCCC3)c(C(F)(F)F)n2)cc1 [Example 176, 2-(4-Cyanophenylamino)-4-trifluoromethyl-pyrimidine-5-carboxylic acid cyclopentylmethyl-amide]	0.33	1.78	13.15	68.7	–
